In BindingDB's records for doi:10.1016/j.ejmech.2019.05.053 (East China University of Science and Technology, 2019) one finds IC50 data, which are given here for 23 compounds.

pIC50: −log10 of the molar value.

The data set is described as follows: Reversal of P-gp-mediated multidrug resistance in human MCF7/Dox cells assessed as potentiation of doxorubicin-induced cytotoxicity by measuring doxorubicin IC50 at 12.5 uM after 48 hrs by MTT assay (Rvb = 51.19 +/- 0.95 microM). (Tetrazolium dyes change colour on reduction, which living cells bring about.)
Take `COc1cc(OC)c(C(=O)/C=C/c2cccc(N3CCOCC3)c2)c(O)c1CC=C(C)C`: the pIC50 – broadly, the negative decadic logarithm of the IC50, by convention in mol/L – is 4.50. Then `COc1cc(OC)c(C(=O)/C=C/c2ccc(N3CCN(C(=O)OC(C)(C)C)CC3)cc2)c(O)c1CC=C(C)C`, with 4.28. Then `COc1cc(O)c(C(=O)/C=C/c2cccc(N3CCN(C(=O)c4ccc(OC)c(OC)c4)CC3)c2)c(OC)c1`, with 4.37; and `COc1cc(O)c(C(=O)/C=C/c2cccc(N3CCNCC3)c2)c(OC)c1`, with 5.58. As for `COc1cc(OC)c(C(=O)/C=C/c2cccc(N3CCNCC3)c2)c(O)c1CC=C(C)C`, the figure is 5.99; as for `COc1cc(OC)c(C(=O)/C=C/c2ccc(N(C)C)cc2)c(O)c1CC=C(C)C`, 4.76.

In the case of `COc1cc(OC)c(C(=O)/C=C/c2cccc(N3CCN(C(=O)OC(C)(C)C)CC3)c2)c(O)c1CC=C(C)C`, the negative logarithm of the IC50 (pIC50) is 4.70. On to `COc1cccc(/C=C/C(=O)c2c(OC)cc(OC)c(CC=C(C)C)c2O)c1`, for which the negative-log IC50 (pIC50) is 5.10. Then `CCCCCc1c(OC)cc(OC)c(C(=O)/C=C/c2cccc(N3CCNCC3)c2)c1O`, with 4.63; and `COc1cc(OC)c(C(=O)/C=C/c2cccc(C(F)(F)F)c2)c(O)c1CC=C(C)C`, with 5.20; and `CCCc1c(OC)cc(OC)c(C(=O)/C=C/c2cccc(N3CCNCC3)c2)c1O`, with 5.29.

On to `COc1cc(O)c(C(=O)/C=C/c2cccc(N3CCOCC3)c2)c(OC)c1`, for which the pIC50 is 4.73. Then `COc1ccc(C(=O)/C=C/c2cccc(N3CCNCC3)c2)c(OC)c1`, with 5.31; and `COc1cc(O)c(C(=O)/C=C/c2cccc(N3CCN(C)CC3)c2)c(OC)c1`, with 4.75.

`COc1cc(O)c(C(=O)/C=C/c2ccc(N3CCN(C(=O)OC(C)(C)C)CC3)cc2)c(OC)c1`: the pIC50 was 4.23. Then `COc1cc(OC)c(C(=O)/C=C/c2cccc(F)c2)c(O)c1CC=C(C)C`, with 4.90; and `COc1cc(OC)c(C(=O)/C=C/c2ccc(Cl)cc2)c(O)c1CC=C(C)C`, with 4.66. Then `CCCCc1c(OC)cc(OC)c(C(=O)/C=C/c2cccc(N3CCNCC3)c2)c1O`, with 5.45; and `COc1c(C)c(O)c(C)c(O)c1C(=O)/C=C/c1ccccc1` [CHEBI:70658], with 4.61; and `COc1cc(OC)c(C(=O)/C=C/c2ccc(OC)c(OC)c2OC)c(O)c1CC=C(C)C`, with 4.56.

With `CCc1c(OC)cc(OC)c(C(=O)/C=C/c2cccc(N3CCNCC3)c2)c1O`, the pIC50 is 5.33. Then `COc1cc(OC)c(C(=O)/C=C/c2cccc(Cl)c2)c(O)c1CC=C(C)C`, with 5.03; and `COc1ccc(/C=C/C(=O)c2c(OC)cc(OC)c(CC=C(C)C)c2O)cc1`, with 4.68.
